Key:
[1] = test system: MDA-MB-436; test: MTS anti-proliferative assay, MDA-MB-436; format: cell-based; conditions: Homo sapiens, 168 h, MDA-MB-436, TNBC, basal B, treatment for 7 days
Experimental: The anti-proliferative effects and IC50 values of the compounds in the BC cell line panel were determined by MTS assay.
The media were changed every 2-days. When the cells grew to about 80% confluence, cells were washed twice with calcium- and magnesium-free phosphate-buffered saline (PBS, pH 7.4), and then trypsinized with 0.05% trypsin-5.3 mm EDTA. The trypsinization was stopped by addition of culture medium with 5% FBS.
The BC cells were seeded at the density of 1,000 cells per well (100 μL) into 96 well plate in DMEM/F-12 (1:1), supplemented with 5% (v/v) FCS and incubated overnight at 37° C. Test compounds are solubilized in dimethyl sulfoxide (DMSO), diluted in cell culture medium to a range of final assay concentrations of 1 nM to 10 μM, added to cells and incubated for 7 days at 37° C. The medium including the test compound are refreshed at days 3 and 5. The MTS assay are carried out by using the CellTiter 96® AQueous One Solution Cell Proliferation Assay kit following the manufacturer's instruction.

[2] = test system: Cal-51 cells; test: Centriole assembly / centrosome amplification assay, Cal-51; format: cell-based
Experimental: For these cell biology assays, cells were plated onto poly-L-lysine coated coverslips in 24 well dishes using the medium and growth conditions described above, but using medium containing phenol red. At 24 hours after plating, compounds (or the equivalent amount of DMSO) were added to individual wells at various concentrations. Cells were incubated for 24 hours at 37° C. BrdU was added during the last 4 hours of the incubation, after which cells were fixed in pre-chilled methanol at −20 OC for 10 minutes, stained with centrosome markers, then treated with acid to denature chromosomal DNA prior to staining for BrdU. To assess centriole biogenesis, centriole number was determined for triplicate samples in cells that had entered S-phase as judged by incorporation of BrdU. Primary antibodies used were mouse anti-γTubulin (pericentriolar material) and rabbit anti-Centrin 2 (centrioles). Secondary antibodies used were Alexa594-conjugated donkey anti-mouse and Alexa488-conjugated donkey anti-rabbit.
For centriole assembly assays, Cal-51 and MDA-MB-468 cells were treated with candidate compounds prior to a short pulse of BrdU. Because the centriole pair is replicated at the G1/S transition, compounds that block centrosome assembly will lead to an increased number of BrdU-positive cells with two centrioles. In addition, like many breast cancer cells Cal-51 and MDA-MB-468 are capable of centrosome amplification, and compounds that block this centrosome amplification should reduce the number of BrdU-positive cells with more than four centrioles.

What does the source list for `COc1cc(N2CCC(O)CC2)ccc1Nc1nc(Nc2ccccc2S(=O)(=O)C(C)C)c2cc[nH]c2n1` [Compound 1, 1-(4-((4-((2-(isopropylsulfonyl)phenyl)amino)-7H-pyrrolo[2,3-d]pyrimidin-2-yl)amino)-3-methoxyphenyl)piperidin-4-ol]?
IC50 [1]: 900 nM; percentage of cells with more than four centrioles (centrosome amplification) ([2]; Cal-51): dose-dependent reduction; percentage of BrdU positive cells that have just two centrioles (centriole assembly) ([2]; Cal-51, continued investigations): dose-dependent increase

Reference: US10611765B2, “Pyrrolopyrimidine derivatives as Mps1/TTK kinase inhibitors” (Ohio State Innovation Foundation, priority 2014, dated 2020)
